Experimental findings from PMC3312789 (Journal of Immunology (Baltimore, Md. : 1950), 2008) are described below.

Among the targets are HLA DRB1*0701 (Homo sapiens, UniProt P01903+P01911, A100R/A102G/A103Q/D57E/D86V/E43K/F76Y/K127E/L162R/M171V/P40G/Q125H/Q99D/R33Q/R42Y/R54Q/S133A/S66F/T210M/V115G/Y107V/Y59L/Y89S); HLA DRB1*0401 (Homo sapiens, UniProt P01903+P01911, A100K/A169T/F76Y/I96L/K127E/L162R/M171V/N62H/P40V/Q125Y/R42H/S133A/S149N/S66Y/V115G/V209L/W38E); HLA DRB1*1101 (Homo sapiens, UniProt P01903+P01911, A100R/A169T/A87E/I96F/K41T/L162R/M171V/P40S/Q125H/Q178H/Q39Y/Q99D/R42S/S66Y/T262R/V115G/W38E); HLA DRB1*0405 (Homo sapiens, UniProt P01903+P01911, A100R/A169T/D86S/F76Y/I96L/K127E/L162R/M171V/N62H/P40V/Q125Y/R42H/S133A/S149N/S66Y/V115G/V209L/W38E); HLA DRB1*0404 (Homo sapiens, UniProt P01903+P01911, A100R/A169T/F76Y/I96L/K127E/L162R/M171V/N62H/P40V/Q125Y/R42H/S133A/S149N/S66Y/V209L/W38E); HLA DRB1*0101 (Homo sapiens, UniProt P01903+P01911, A100R/D57E/F55L/F60I/F76Y/I96L/L162R/M171V/P40L/Q125E/R42F/V115G/Y59C); HLA DRB1*0301 (Homo sapiens, UniProt P01903+P01911, A100K/A102G/A103R/A169T/F55Y/I96L/K41T/L162R/M171V/P40S/Q125H/Q178H/Q39Y/R42S/S66N/T106N/T262R/W38E/Y61H); HLA DRB1*1302 (Homo sapiens, UniProt P01903+P01911, A100E/A169T/K41T/L162R/M171V/P40S/Q125H/Q178H/Q39Y/Q99D/R42S/S66N/T262R/V115G/W38E/Y61H); HLA DRB1*1501 (Homo sapiens, UniProt P01903+P01911); HLA DRB3*0101 (Homo sapiens, UniProt P01903+P79483).

Holding throughout (assay): In vitro HLA-DR peptide binding assay

Where no end group is shown, it is not given here.

Chain of HLA DRB1*0301 (P01903 26-254 limits assumed, other chains not shown): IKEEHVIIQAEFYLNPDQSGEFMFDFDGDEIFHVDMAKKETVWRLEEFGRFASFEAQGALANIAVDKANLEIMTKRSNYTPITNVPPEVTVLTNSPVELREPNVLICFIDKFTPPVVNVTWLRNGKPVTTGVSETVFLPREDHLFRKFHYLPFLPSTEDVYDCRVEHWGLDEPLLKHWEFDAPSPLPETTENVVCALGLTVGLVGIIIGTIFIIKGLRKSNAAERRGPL
Chain of HLA DRB1*1101 (P01903 26-254 limits assumed, other chains not shown): as above
Chain of HLA DRB1*1302 (P01903 26-254 limits assumed, other chains not shown): as above

Turning to YQQGVTVDSIGM [24.3], the IC50 at HLA DRB1*0701 is 0.389 µM; at HLA DRB1*0401, 4.41 µM; on HLA DRB1*1101, greater than 5 µM; on HLA DRB1*0405, greater than 5 µM; on HLA DRB1*0404, greater than 5 µM; at HLA DRB1*0101, greater than 5 µM. In addition, the IC50 on HLA DRB1*0301, at HLA DRB1*1302, on HLA DRB1*1501 and at HLA DRB3*0101 was greater than 5 µM each time.

On to HAPAAPANPGLI [34.1], for which the IC50 at HLA DRB1*0701 is greater than 5 µM; on HLA DRB1*0401, greater than 5 µM; at HLA DRB1*1101, greater than 5 µM; on HLA DRB1*0405, greater than 5 µM; at HLA DRB1*0404, greater than 5 µM; on HLA DRB1*0101, 3.55 µM. Further, the IC50 on HLA DRB1*0301, at HLA DRB1*1302, on HLA DRB1*1501 and on HLA DRB3*0101 was greater than 5 µM throughout.

In the case of `CC(C)C[C@H](NC(=O)[C@H](C)NC(=O)[C@H](CO)NC(=O)[C@H](CC(=O)O)NC(=O)[C@H](CCC(=O)O)NC(=O)[C@@H]1CCCN1)C(=O)N[C@@H](CC(C)C)C(=O)N[C@@H](CCC(=O)O)C(=O)N[C@@H](CC(=O)O)C(=O)N1CCC[C@H]1C(=O)N[C@@H](C)C(=O)NCC(=O)O` [30.8], the IC50 on HLA DRB1*0701, at HLA DRB1*0401, on HLA DRB1*1101, on HLA DRB1*0405, at HLA DRB1*0404 and at HLA DRB1*0101 was greater than 5 µM in each case. Also, the concentration for half-maximal inhibition (IC50) at HLA DRB1*0301 was greater than 5 µM; at HLA DRB1*1302 it was greater than 5 µM; at HLA DRB1*1501, greater than 5 µM; at HLA DRB3*0101, 2.05 µM.

Turning to DPEDSALLEDPA [30.7], the half-inhibitory concentration (IC50) on HLA DRB1*0701, at HLA DRB1*0401, on HLA DRB1*1101, at HLA DRB1*0405, at HLA DRB1*0404 and on HLA DRB1*0101 was greater than 5 µM throughout. In addition, the IC50 on HLA DRB1*0301 was greater than 5 µM; on HLA DRB1*1302, greater than 5 µM; at HLA DRB1*1501, greater than 5 µM; on HLA DRB3*0101 it was 1.62 µM.

Consider APAAPANPGLII [34.2], for which the concentration for half-maximal inhibition (IC50) was greater than 5 µM at HLA DRB1*0701; greater than 5 µM on HLA DRB1*0401; greater than 5 µM on HLA DRB1*1101; greater than 5 µM on HLA DRB1*0405; greater than 5 µM on HLA DRB1*0404; 1.27 µM on HLA DRB1*0101. Besides, the IC50 at HLA DRB1*0301 is greater than 5 µM; at HLA DRB1*1302, 0.642 µM; on HLA DRB1*1501, greater than 5 µM; on HLA DRB3*0101 it was greater than 5 µM.

As for AYQQGVTVDSIG [24.2], the IC50 on HLA DRB1*0701 was 2.72 µM; at HLA DRB1*0401 it was 0.212 µM; at HLA DRB1*1101, greater than 5 µM; on HLA DRB1*0405, greater than 5 µM; on HLA DRB1*0404 it was greater than 5 µM; on HLA DRB1*0101 it was 0.471 µM. In addition, the IC50 on HLA DRB1*0301, at HLA DRB1*1302, at HLA DRB1*1501 and on HLA DRB3*0101 was greater than 5 µM throughout.
